From ChEMBL document CHEMBL1201862, “PubChem BioAssay data set” (2004)
“And” between values parts separate entries of the source, which are not always exact repeats. Identical values can stand only once.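 These data come from cells grown in 96-well plates and exposed to compound for 48 hours at five concentrations. At the GI50, growth is halved.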 The source made the active and inactive calls. Rule as the data show it: active = GI50 up to about 1.1 µM and inactive = higher.

Experiments:
Test in all cases: inhibition of tumour cell growth, NCI panel, 48 h
DU-145 = tested on: DU-145
SN12C = tested on: SN12C
M14 = tested on: M14
OVCAR-3 = tested on: OVCAR-3
OVCAR-8 = tested on: OVCAR-8
SF-268 = tested on: SF-268
COLO 205 = tested on: COLO 205
RXF 393 = tested on: RXF 393
Hs-578T = tested on: Hs-578T
SR = tested on: SR
OVCAR-5 = tested on: OVCAR-5
MDA-MB-231 = tested on: MDA-MB-231
Malme-3M = tested on: Malme-3M
IGROV-1 = tested on: IGROV-1
HCC 2998 = tested on: HCC 2998
SK-OV-3 = tested on: SK-OV-3
SK-MEL-5 = tested on: SK-MEL-5
A549 = tested on: A549
HOP-62 = tested on: HOP-62
CCRF-CEM = tested on: CCRF-CEM

Measured: GI50

O=C(O)c1ccccc1-c1ccccc1C(=O)Nc1ccc2c(c1)Cc1cc(F)ccc1-2
inactive: DU-145 33.6 µM | SN12C 12.3 µM | M14 19.7 µM | OVCAR-3 17.7 µM | OVCAR-8 35.2 µM | SF-268 43.6 µM | COLO 205 17.4 µM | RXF 393 32.2 µM | Hs-578T 54.8 µM | SR 18 µM | OVCAR-5 30.8 µM | MDA-MB-231 26.3 µM | Malme-3M 33.7 µM | IGROV-1 34 µM | HCC 2998 16.3 µM | SK-OV-3 31.3 µM | SK-MEL-5 19.5 µM | A549 24.5 µM | HOP-62 24.9 µM

CC(C)N1CCN(c2ccncc2S(=O)(=O)N2CCCCC2)CC1
inactive: DU-145 > 100 µM | SN12C > 100 µM | M14 > 100 µM | OVCAR-3 > 100 µM | OVCAR-8 > 100 µM | SF-268 > 100 µM | COLO 205 > 100 µM | RXF 393 > 100 µM | Hs-578T > 100 µM | SR > 100 µM | OVCAR-5 > 100 µM | MDA-MB-231 > 100 µM | Malme-3M > 100 µM | IGROV-1 > 100 µM | HCC 2998 > 100 µM | SK-OV-3 > 100 µM | SK-MEL-5 > 100 µM | A549 > 100 µM | HOP-62 > 100 µM

COc1cc(C2C(C#N)=C(N)OC3=C2CCS(=O)(=O)c2ccc(C)cc23)cc(OC)c1OC (stereo unspecified)
inactive: CCRF-CEM > 100 µM | DU-145 > 100 µM | SN12C > 100 µM | M14 > 100 µM | OVCAR-3 > 100 µM | OVCAR-8 > 100 µM | SF-268 > 100 µM | COLO 205 > 100 µM | Hs-578T > 100 µM | SR 47.8 µM | OVCAR-5 > 100 µM | MDA-MB-231 > 100 µM | Malme-3M > 100 µM | IGROV-1 > 100 µM | HCC 2998 > 100 µM | SK-MEL-5 > 100 µM | A549 > 100 µM | HOP-62 > 100 µM

CSC1NC(c2ccc(Cl)cc2)=C(C#N)C(=O)N1C1OCC(OC(C)=O)C(OC(C)=O)C1OC(C)=O (stereo unspecified)
inactive: DU-145 > 100 µM | SN12C 45.1 µM | M14 > 100 µM | OVCAR-3 > 100 µM | OVCAR-8 > 100 µM | SF-268 > 100 µM | COLO 205 > 100 µM | Hs-578T > 100 µM | SR 24.5 µM | OVCAR-5 > 100 µM | MDA-MB-231 > 100 µM | Malme-3M > 100 µM | IGROV-1 > 100 µM | HCC 2998 > 100 µM | SK-OV-3 > 100 µM | SK-MEL-5 81.1 µM | HOP-62 > 100 µM

O=C(O)c1cccc(CN2CCCCC2)c1
inactive: CCRF-CEM > 100 µM | DU-145 > 100 µM | SN12C > 100 µM | M14 > 100 µM | OVCAR-3 > 100 µM | OVCAR-8 > 100 µM | SF-268 > 100 µM | COLO 205 > 100 µM | RXF 393 > 100 µM | Hs-578T > 100 µM | OVCAR-5 > 100 µM | MDA-MB-231 > 100 µM | Malme-3M > 100 µM | IGROV-1 > 100 µM | HCC 2998 > 100 µM | SK-OV-3 > 100 µM | SK-MEL-5 > 100 µM | A549 > 100 µM | HOP-62 > 100 µM

COc1ccc2nc(-c3ccc(O)cc3)cn2c1
inactive: CCRF-CEM 72.1 µM | DU-145 86.9 µM | SN12C 94.8 µM | M14 47.4 µM | OVCAR-3 82 µM | OVCAR-8 51.3 µM | SF-268 56.8 µM | COLO 205 43.5 µM | RXF 393 > 100 µM | Hs-578T 73.1 µM | SR 10 µM | OVCAR-5 > 100 µM | MDA-MB-231 > 100 µM | Malme-3M > 100 µM | IGROV-1 42.4 µM | SK-OV-3 > 100 µM | SK-MEL-5 16.6 µM | A549 64 µM | HOP-62 50.1 µM

C=C1C(=O)OC2CC1C(OC(C)=O)C/C(C)=C/CC/C(C)=C\CCC2(C)O (stereo unspecified)
inactive: DU-145 3.95 µM and 5.77 µM | SN12C 4.55 µM and 3.09 µM | M14 5.83 µM and 6.1 µM | OVCAR-3 5.93 µM and 4.35 µM | OVCAR-8 3.36 µM and 3.17 µM | SF-268 5.24 µM and 5.45 µM | COLO 205 3.98 µM and 3.92 µM | RXF 393 3.67 µM | Hs-578T 5.87 µM and 3.79 µM | SR 1.29 µM | OVCAR-5 10.9 µM and 16.5 µM | MDA-MB-231 7.13 µM and 8.95 µM | Malme-3M 3.25 µM | HCC 2998 7.69 µM and 4.74 µM | SK-OV-3 19.5 µM and 24.5 µM | A549 16 µM and 17.2 µM | HOP-62 15.3 µM and 13.6 µM

S=C1/C(=N/c2ccccc2)N(c2ccccc2)/C(=N\c2ccccn2)N1c1ccccc1
inactive: CCRF-CEM > 100 µM | DU-145 19.8 µM | SN12C 8.41 µM | OVCAR-8 14.5 µM | SF-268 16.6 µM | COLO 205 10.8 µM | RXF 393 10 µM | Hs-578T 14.9 µM | SR 7.83 µM | OVCAR-5 16.4 µM | MDA-MB-231 16.6 µM | Malme-3M 16.9 µM | IGROV-1 13.3 µM | HCC 2998 14.1 µM | SK-OV-3 19.9 µM | SK-MEL-5 13.9 µM | A549 17.8 µM | HOP-62 16.3 µM

CCN(CC)CCO/N=C1\CC[C@H]2[C@@H]3CC=C4C[C@@H](O)CC[C@]4(C)[C@H]3CC[C@]12C
inactive: DU-145 18.9 µM | SN12C 45.6 µM | OVCAR-3 19.5 µM | OVCAR-8 21.5 µM | SF-268 34 µM | COLO 205 12.8 µM | RXF 393 17.5 µM | Hs-578T 34 µM | SR 5.31 µM | OVCAR-5 33 µM | MDA-MB-231 19.7 µM | Malme-3M 16.1 µM | IGROV-1 31.8 µM | HCC 2998 16.9 µM | SK-MEL-5 12.1 µM | HOP-62 17.6 µM

CCOC(=O)/C(C(N)=O)=C(O)/C(O)=C/C(=O)c1ccc(Cl)cc1
inactive: CCRF-CEM 4.53 µM | DU-145 14.8 µM | SN12C 16.5 µM | M14 21.2 µM | OVCAR-3 21.9 µM | OVCAR-8 17.7 µM | SF-268 20.6 µM | COLO 205 17.8 µM | RXF 393 15.9 µM | Hs-578T 42.1 µM | SR 21.7 µM | OVCAR-5 23.5 µM | MDA-MB-231 17.3 µM | Malme-3M 17.9 µM | IGROV-1 18 µM | SK-OV-3 20.6 µM | SK-MEL-5 19.9 µM | A549 32.4 µM | HOP-62 21.9 µM

CC(Br)C(=O)NC(CO)C(=O)O (stereo unspecified)
inactive: CCRF-CEM > 100 µM | DU-145 > 100 µM | SN12C > 100 µM | M14 > 100 µM | OVCAR-3 > 100 µM | OVCAR-8 > 100 µM | SF-268 > 100 µM | COLO 205 > 100 µM | RXF 393 > 100 µM | Hs-578T > 100 µM | SR > 100 µM | OVCAR-5 > 100 µM | MDA-MB-231 > 100 µM | Malme-3M > 100 µM | IGROV-1 > 100 µM | SK-OV-3 > 100 µM | SK-MEL-5 > 100 µM | A549 > 100 µM | HOP-62 > 100 µM

O=C1/C(=C/c2ccco2)NC(=S)N1CN1CCOCC1
inactive: CCRF-CEM > 100 µM | DU-145 > 100 µM | SN12C > 100 µM | M14 > 100 µM | OVCAR-3 > 100 µM | OVCAR-8 > 100 µM | SF-268 > 100 µM | COLO 205 > 100 µM | Hs-578T > 100 µM | SR > 100 µM | OVCAR-5 > 100 µM | MDA-MB-231 > 100 µM | IGROV-1 > 100 µM | SK-OV-3 > 100 µM | SK-MEL-5 > 100 µM | A549 > 100 µM | HOP-62 > 100 µM

Cc1n[nH]c(C(F)(F)F)c1/N=N/N(C)C
inactive: CCRF-CEM 2.63 µM | DU-145 7.69 µM | SN12C 12.5 µM | M14 14.7 µM | OVCAR-3 5.16 µM | OVCAR-8 11.1 µM | SF-268 11.4 µM | COLO 205 2.98 µM | RXF 393 13 µM | Hs-578T 15.6 µM | SR 4.47 µM | MDA-MB-231 11.8 µM | Malme-3M 16.6 µM | HCC 2998 14 µM | SK-OV-3 12.5 µM | SK-MEL-5 > 100 µM | A549 18.4 µM | HOP-62 10 µM

CNn1c(C)n[nH]c1=O
inactive: CCRF-CEM > 100 µM | DU-145 > 100 µM | SN12C > 100 µM | M14 > 100 µM | OVCAR-3 > 100 µM | OVCAR-8 > 100 µM | SF-268 > 100 µM | COLO 205 > 100 µM | Hs-578T > 100 µM | SR > 100 µM | OVCAR-5 > 100 µM | MDA-MB-231 > 100 µM | Malme-3M 96.8 µM | IGROV-1 > 100 µM | HCC 2998 > 100 µM | SK-OV-3 > 100 µM | SK-MEL-5 > 100 µM | A549 > 100 µM | HOP-62 > 100 µM

C=C1CC(C#N)(C#N)[C@@H]2CC3CCCC3[C@H]12.C=C1CC(C#N)(C#N)[C@H]2C3CCCC3C[C@@H]12 (stereo partly specified)
inactive: CCRF-CEM 10 µM | DU-145 38.4 µM | SN12C 15.7 µM | M14 15.6 µM | OVCAR-3 19.3 µM | OVCAR-8 17.8 µM | SF-268 23.3 µM | RXF 393 22.1 µM | Hs-578T 35.9 µM | SR 14.6 µM | OVCAR-5 10 µM | MDA-MB-231 22 µM | IGROV-1 27.9 µM | SK-OV-3 25.4 µM | SK-MEL-5 24.7 µM | A549 10 µM | HOP-62 10 µM
